Paper PMC10385868 (Viruses, 2023)
≈ marks a conversion by molar mass, not a printed value. Where “and” joins values, the source holds several entries; their conditions need not be identical. Equal entries are not always repeated.

Tested on: VEEV
Test: not given
Format: cell-based, Venezuelan equine encephalitis virus
Details: not given

| SMILES | efficacy in plaque assays | reduction in plaque-forming units (PFU) [log] | viral titer reduction [logs] | effect on titers |
| --- | --- | --- | --- | --- |
| CCCNC(=O)[C@H]1O[C@@H]1C(=O)N[C@H](C(=O)N1CCC[C@H]1C(=O)OC)[C@@H](C)CC [CA074me, CA074 methyl ester] | effective | ~6 | > 5 | – |
| CCOC(=O)[C@H]1O[C@@H]1C(=O)N[C@@H](CC(C)C)C(=O)NCCC(C)C [E64d] | – | – | – | minor reductions |

Tested on: EEEV
Test: not given
Format: cell-based, eastern equine encephalitis virus
Details: not given

| SMILES | Average titer | reduction in PFU [log] | effect on titers |
| --- | --- | --- | --- |
| CCCNC(=O)[C@H]1O[C@@H]1C(=O)N[C@H](C(=O)N1CCC[C@H]1C(=O)OC)[C@@H](C)CC [CA074me, CA074 methyl ester] | 3.12 × 10^4 and 3.20 × 10^6 and 3.18 × 10^7 and 4.57 × 10^7 | 2 | – |
| CCOC(=O)[C@H]1O[C@@H]1C(=O)N[C@@H](CC(C)C)C(=O)NCCC(C)C [E64d] | 2.28 × 10^8 and 2.27 × 10^8 | – | no effect |

Tested on: WEEV
Test: not given
Format: cell-based, Western equine encephalitis virus
Details: not given

| SMILES | reduction in PFU [log] | Average titer | effect on titers |
| --- | --- | --- | --- |
| CCCNC(=O)[C@H]1O[C@@H]1C(=O)N[C@H](C(=O)N1CCC[C@H]1C(=O)OC)[C@@H](C)CC [CA074me, CA074 methyl ester] | 2 | – | – |
| CCOC(=O)[C@H]1O[C@@H]1C(=O)N[C@@H](CC(C)C)C(=O)NCCC(C)C [E64d] | – | 2.13 × 10^6 and 2.16 × 10^6 | no effect |

Tested on: CHIKV
Test: not given
Format: cell-based, Chikungunya virus
Details: not given

| SMILES | reduction in PFU [log] | effect on titers |
| --- | --- | --- |
| CCCNC(=O)[C@H]1O[C@@H]1C(=O)N[C@H](C(=O)N1CCC[C@H]1C(=O)OC)[C@@H](C)CC [CA074me, CA074 methyl ester] | 2 | – |
| CCOC(=O)[C@H]1O[C@@H]1C(=O)N[C@@H](CC(C)C)C(=O)NCCC(C)C [E64d] | – | minor reductions |

Tested on: VEEV Trinidad
Test: not given
Format: cell-based, Venezuelan equine encephalitis virus
Details: not given

| SMILES | reduction in plaque forming units (PFU) | antiviral activity in plaque assays | reduction of VEEV viral replication in plaque assays [log] |
| --- | --- | --- | --- |
| CCCNC(=O)[C@H]1O[C@@H]1C(=O)N[C@H](C(=O)N1CCC[C@H]1C(=O)OC)[C@@H](C)CC [CA074me, CA074 methyl ester] | ~ 5 log | – | – |
| C#Cc1cc(N2CCN(C(=O)c3ccoc3)CC2)n2nc(-c3cccc(Cl)c3)cc2n1 [MLS003116111-01] | – | notable antiviral activities | – |
| N=c1c2c(-c3ccccc3)c(-c3ccccc3)n(Cc3ccccc3)c2ncn1C1CCC(O)CC1 (stereo not drawn) [NCGC00247785-13] | – | notable antiviral activities | – |
| COc1cc(NS(C)(=O)=O)ccc1Nc1c2ccccc2nc2ccccc12 [amsacrine] | – | notable antiviral activities | – |
| CC[C@H]1CN2CCc3cc(OC)c(OC)cc3[C@@H]2C[C@@H]1C[C@H]1NCCc2cc(OC)c(OC)cc21 [emetine] | – | notable antiviral activities | – |
| O=c1[nH]c2ccccc2n1CCCN1CCN(C(c2ccccc2)c2ccccc2)CC1 [oxatomide] | – | notable antiviral activities | > 5 |

Molecular target: T1, VEEV nsP2 protease (Venezuelan equine encephalitis virus, UniProt P27282)
Test: biochemical
Details: Ki

T1 sequence (P27282 1003-1322 limits assumed): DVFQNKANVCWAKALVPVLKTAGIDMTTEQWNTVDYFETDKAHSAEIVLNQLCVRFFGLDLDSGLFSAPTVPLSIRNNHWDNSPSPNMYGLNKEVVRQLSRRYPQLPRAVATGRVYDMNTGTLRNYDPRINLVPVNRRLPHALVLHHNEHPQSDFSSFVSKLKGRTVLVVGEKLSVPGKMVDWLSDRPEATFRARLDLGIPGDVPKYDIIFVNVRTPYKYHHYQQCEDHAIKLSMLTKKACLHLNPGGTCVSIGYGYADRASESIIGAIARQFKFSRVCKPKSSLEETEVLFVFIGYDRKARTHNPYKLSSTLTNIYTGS

| SMILES | Ki [µM] |
| --- | --- |
| CCCNC(=O)[C@H]1O[C@@H]1C(=O)N[C@H](C(=O)N1CCC[C@H]1C(=O)OC)[C@@H](C)CC [CA074me, CA074 methyl ester] | 1200 ± 500 |
| CCOC(=O)[C@H]1O[C@@H]1C(=O)N[C@@H](CC(C)C)C(=O)NCCC(C)C [E64d] | 40 ± 30 |

Same assay, conditions: pH 7

| SMILES | k2 [min⁻¹] |
| --- | --- |
| CCOC(=O)[C@H]1O[C@@H]1C(=O)N[C@@H](CC(C)C)C(=O)NCCC(C)C [E64d] | 0.10 ± 0.06 |

Same assay, conditions: pH 7, read-out: k2/Ki

| SMILES | kinact/KI [M⁻¹ s⁻¹] |
| --- | --- |
| CCOC(=O)[C@H]1O[C@@H]1C(=O)N[C@@H](CC(C)C)C(=O)NCCC(C)C [E64d] | 33.3 |

Molecular target: T1, VEEV nsP2 protease
Test: not given
Format: biochemical
Details: not given

| SMILES | inhibition in discontinuous assays (SDS-PAGE gels) |
| --- | --- |
| CCOC(=O)[C@H]1O[C@@H]1C(=O)N[C@@H](CC(C)C)C(=O)NCCC(C)C [E64d] | complete inhibition |

Tested on: VEEV-Trinidad
Test: microbe, parasite or virus in culture
Format: cell-based
Details: Venezuelan equine encephalitis virus, A549

| SMILES | EC50 [µM] |
| --- | --- |
| CCCNC(=O)[C@H]1O[C@@H]1C(=O)N[C@H](C(=O)N1CCC[C@H]1C(=O)OC)[C@@H](C)CC [CA074me, CA074 methyl ester] | 11 |

Tested on: VEEV-Trd
Test: microbe, parasite or virus in culture
Format: cell-based, Venezuelan equine encephalitis virus
Details: not given

| SMILES | efficacy in cell-based assays |
| --- | --- |
| CCOC(=O)[C@H]1O[C@@H]1C(=O)N[C@@H](CC(C)C)C(=O)NCCC(C)C [E64d] | ineffective |

Tested on: not given
Test: not given
Details: rat, microsomes

| SMILES | Rat_SD/Microsomes t1/2 [m] |
| --- | --- |
| CCCNC(=O)[C@H]1O[C@@H]1C(=O)N[C@H](C(=O)N1CCC[C@H]1C(=O)OC)[C@@H](C)CC [CA074me, CA074 methyl ester] | 11.1 |
| CCOC(=O)[C@H]1O[C@@H]1C(=O)N[C@@H](CC(C)C)C(=O)NCCC(C)C [E64d] | 1.5 |

Tested on: not given
Test: not given
Details: not given

| SMILES | PAMPA [nm/s] |
| --- | --- |
| CCCNC(=O)[C@H]1O[C@@H]1C(=O)N[C@H](C(=O)N1CCC[C@H]1C(=O)OC)[C@@H](C)CC [CA074me, CA074 methyl ester] | 330 |

Tested on: not listed separately
Test: in vitro
Details: African green monkey

| SMILES | CC50 [µM] |
| --- | --- |
| CCCNC(=O)[C@H]1O[C@@H]1C(=O)N[C@H](C(=O)N1CCC[C@H]1C(=O)OC)[C@@H](C)CC [CA074me, CA074 methyl ester] | > 100 |

Tested on: not listed separately
Test: in vitro
Details: SD, rat, microsomes

| SMILES | half-life [min] |
| --- | --- |
| CCCNC(=O)[C@H]1O[C@@H]1C(=O)N[C@H](C(=O)N1CCC[C@H]1C(=O)OC)[C@@H](C)CC [CA074me, CA074 methyl ester] | 11.1 |

Tested on: not listed separately
Test: in vitro
Details: PAMPA

| SMILES | Papp [nm/s] |
| --- | --- |
| CCCNC(=O)[C@H]1O[C@@H]1C(=O)N[C@H](C(=O)N1CCC[C@H]1C(=O)OC)[C@@H](C)CC [CA074me, CA074 methyl ester] | 330 |
| CCOC(=O)[C@H]1O[C@@H]1C(=O)N[C@@H](CC(C)C)C(=O)NCCC(C)C [E64d] | 890 |

Tested on: not listed separately
Test: physchem
Details: not given

| SMILES | solubility [mg/mL] |
| --- | --- |
| CCCNC(=O)[C@H]1O[C@@H]1C(=O)N[C@H](C(=O)N1CCC[C@H]1C(=O)OC)[C@@H](C)CC [CA074me, CA074 methyl ester] | 0.022 (≈ 55.3 µM) |
| CCOC(=O)[C@H]1O[C@@H]1C(=O)N[C@@H](CC(C)C)C(=O)NCCC(C)C [E64d] | 0.024 (≈ 70.1 µM) |
